Results from ChEMBL document CHEMBL4043158, “Synthesis and carbonic anhydrase inhibition of polycyclic imides incorporating N-benzenesulfonamide moieties” (Bioorg Med Chem, 2017).

These compounds were tested against Carbonic anhydrase 9 (Homo sapiens, UniProt Q16790) (assay: Inhibition of human CA9 pre-incubated for 10 mins by stopped-flow CO2 hydrase assay).

Q: How did the Ki turn out when `NS(=O)(=O)c1ccc(-n2c(=O)c3cc4c(=O)n(-c5ccc(S(N)(=O)=O)cc5)c(=O)c4cc3c2=O)cc1` was run?
A: 251 nM

Q: `NS(=O)(=O)c1ccc(N2C(=O)c3ccc4c5c(ccc(c35)C2=O)C(=O)N(c2ccc(S(N)(=O)=O)cc2)C4=O)cc1` was tested. Which Ki did it give?
A: 23.9 nM

Q: For `NS(=O)(=O)c1ccc(-n2c(=O)c3ccccc3c3ccccc3c2=O)cc1`, which Ki is on record?
A: 93.1 nM

Q: Which Ki does the source give for `NS(=O)(=O)c1ccc(CN2C(=O)c3cccc4cccc(c34)C2=O)cc1` here?
A: 108 nM

Q: How did the Ki turn out when `NS(=O)(=O)c1ccc(CN2C(=O)c3cccc4cc([N+](=O)[O-])cc(c34)C2=O)cc1` was run?
A: 251 nM

Q: `NS(=O)(=O)c1ccc(CCN2C(=O)c3cccc4cc([N+](=O)[O-])cc(c34)C2=O)cc1` was tested. Which Ki did it give?
A: 242 nM

Q: Which Ki does the source give for `NS(=O)(=O)c1ccc(N2C(=O)c3cccc4cccc(c34)C2=O)cc1` here?
A: 287 nM

Q: How did the Ki turn out when `NS(=O)(=O)c1ccc(CCn2c(=O)c3ccccc3c3ccccc3c2=O)cc1` was run?
A: 301 nM

Q: With `NS(=O)(=O)c1ccc(CCN2C(=O)c3cccc4cccc(c34)C2=O)cc1` as the compound, how does the Ki read?
A: 108 nM

Q: With `NS(=O)(=O)c1ccc(Cn2c(=O)c3ccccc3c3ccccc3c2=O)cc1` as the compound, how does the Ki read?
A: 191 nM

Q: With `NS(=O)(=O)c1ccc(CN2C(=O)c3ccc4c5c(ccc(c35)C2=O)C(=O)N(Cc2ccc(S(N)(=O)=O)cc2)C4=O)cc1` as the compound, how does the Ki read?
A: 2780 nM

Q: With `NS(=O)(=O)CCN1C(=O)c2ccc3c4c(ccc(c24)C1=O)C(=O)N(CCc1ccc(S(N)(=O)=O)cc1)C3=O` as the compound, how does the Ki read?
A: 25.5 nM

Q: How did the Ki turn out when `NS(=O)(=O)c1ccc(Cn2c(=O)c3cc4c(=O)n(Cc5ccc(S(N)(=O)=O)cc5)c(=O)c4cc3c2=O)cc1` was run?
A: 639 nM

Q: Which Ki does the source give for `NS(=O)(=O)c1ccc(N2C(=O)c3cccc4cc([N+](=O)[O-])cc(c34)C2=O)cc1` here?
A: 218 nM

Q: How did the Ki turn out when `NS(=O)(=O)c1ccc(CCn2c(=O)c3cc4c(=O)n(CCc5ccc(S(N)(=O)=O)cc5)c(=O)c4cc3c2=O)cc1` was run?
A: 2050 nM
